Measurements: US20130309380A1, “METHODS FOR PRESERVING FRESH PRODUCE” (NatureSeal, Inc., priority 2003, published 2013)

Columns and labels:
Red Delicious apples [1] = assay: Hardness of sliced Red Delicious apples measured with QTS25
Description: (§1) The firmness or hardness of the fruit is the force required for a probe to penetrate the fruit a given distance into the fruit. The firmness is determined using a Quality and Test System 25 and TA 40 probe from Stevens Company. The TA 40 probe a black acetate, 4.5 mm diameter, 20 mm long rod probe having a flat end. The following settings were employed in the QTS system: the test type is a compression test of one cycle, 0 second hold time, 0 second recovery, 5 g trigger point, 30 mm/min test speed, target unit distance, and a target value of 3 mm. The apple pieces were 1 cm thick.
(§2) Whole Red Delicious apples were rinsed with tap water, sanitized with a sodium hypochlorite solution containing 100 ppm chlorine, then cored and sliced. The apple slices were immersed in water for 0.5 to 2 minutes. Then the apple slices were dipped into produce preservative solution containing 4% ascorbic acid and 1.59% K2CO3 having a pH 5.69 for 1 minute. The slices were removed from the solution and drained for 1-2 minutes, sealed in polyethylene bags, and stored at 2-5° C. For controls, sliced apples either not treated or were dipped into either 4% ascorbic acid with 0.66% NaOH to adjust the pH to 4.45. For comparison, sliced apples were dipped into a solution containing 4% ascorbic acid and 1.22% Na2CO3 and having a pH of 5.58.
(§3) The apples were evaluated and scored on a scale of 0-10 at time intervals. A score of 10 means that the fruit's color and appearance is as good as fresh cut fruit. A score of 7 is the minimum acceptable appearance. Hardness was measured with QTS25.

Bartlett pears = assay: Hardness of sliced Bartlett pears
Description: as §1, §2
Bartlett pears were preserved with the fresh produce preservative as in Example 1a, with preservative solution that contained 4% ascorbic acid and 1.59% K2-CO3. For comparison, pears were treated with a comparative solution that contained 4% ascorbic acid and 1.22% Na2CO3.

Bramley apples = assay: Evaluation of sliced Bramley apples: appearance by visual inspection, firmness by bending
Description: The firmness of the produce in Example 11a were evaluated by bending produce samples. Appearance was evaluated by visual inspection. The moisture was evaluated by measuring the amount of water the produce released.
Whole Bramley apples free from blemishes or bruises, were rinsed with water, sanitized with a sodium hypochlorite solution having 100 parts per million available chlorine, for two minutes, then peeled, cored, and sliced. The sliced apples were dipped into a fresh produce preservative solution that contained 5.12% strontium ascorbate; the fresh produce preservative solution contained 4.12% ascorbic acid and 1.79% […], for about 30 to 60 seconds. The apples were then drained in a colander for one minute. The apple slices and the colander were placed in 500 micron plastic bags from SunSet Packaging, stored at 4° C. and evaluated several times over a 15 day period. Water which collected in the plastic bag was removed and weighed.
For comparison, similarly prepared apple slices were placed in one of several solutions that contained either: 4.3% ascorbic acid and 1.13% hydrated MgCO3, specifically 4MgCO3.Mg(OH)25H2O or a 5.0% w/w aqueous solution of calcium ascorbate dihydrate, having a pH of 7.2; or a 5.3% w/w solution, of 4.12% ascorbic acid and 1.17% calcium carbonate,; or 6% ascorbic acid having a pH of 2.3; or 48 g ascorbic acid, 48 g citric acid, 16 g CaCl2 and 48 g NaCl in 800 g water, with a pH of 1.2; or 6% w/w citric acid and 6% w/w ascorbic acid; or 4.64% sodium ascorbate having 4.13% ascorbic acid and 1.18% NaCo3.
Bramley apples were preserved with the fresh produce preservative as in Example 11a except that the preservative solution contained lithium ascorbate. The lithium ascorbate solution was prepared by adding 7.35 grams of lithium carbonate and 35 grams ascorbic acid to 800 grams water.
For comparison, apple slices were placed in one of several comparative solutions: a 5.0% w/w aqueous solution of calcium ascorbate dihydrate containing 42.5 grams of calcium ascorbate dihydrate and 800 grams water with a pH of 7; a 5.3% w/w solution of calcium ascorbate containing 44.94 grams of mixture of 9.95 grams calcium carbonate and 35 grams ascorbic acid in 800 grams water with a pH of 5.5; a comparative solution, containing 48 g ascorbic acid, 48 g citric acid, 16 g CaCl2, 48 g NaCl and 800 g water with a pH of 1.2; a comparative solution of sodium ascorbate containing 28.45 grams of sodium carbonate 35 grams ascorbic acid, 800 grams water having a pH of 6.8; a comparative solution of calcium ascorbate containing 8.75 grams of calcium carbonate, 35 grams ascorbic acid, and to 800 grams water; a comparative solution of calcium ascorbate containing 9.95 grams of calcium carbonate, 35 grams ascorbic acid, and 765 grams water; a comparative solution of magnesium ascorbate containing 9.66 grams of hydrated magnesium carbonate 4MgCO3.Mg(OH)25H2O, 35 grams ascorbic acid, 765 grams water, having a pH of 6.4; and a comparative solution of zinc ascorbate containing 35 grams ascorbic acid, 12.74 grams zinc carbonate and 765 grams water, with a pH of 5.5. The apple slices were evaluated on day five.

Red Delicious apples [2] = assay: Evaluation of sliced Red Delicious apples preserved with fresh produce preservative (scores); conditions: for Color / Flavor / Moistness / Texture: scale 0-10; for color/appearance score: scale to 10
Description: The texture, flavor, and moistness of the fruit were evaluated by tasting fruit samples. The color and/or appearance was also evaluated by visual inspection. The color, texture, moistness and flavor were then evaluated according to a scale of either 1 to 10, with 10 being the value assigned to a freshly cut piece of comparative fruit or vegetable. A value of less than 7 is not acceptable.
as §2, §3
Red Delicious apples and Granny Smith apples were preserved with the fresh produce preservative as in Example 1 a, except that the preservative solution contained 4% ascorbic acid and 1% Li2CO3.

Granny Smith apples = assay: Evaluation of sliced Granny Smith apples preserved with fresh produce preservative (scores); conditions: scale to 10

O=C1O[C@H]([C@@H](O)CO)C(O)=C1O [Ascorbic Acid, ascorbic acid]
Hardness (Red Delicious apples [1]; 0 hour): 2083 | Hardness (Red Delicious apples [1]; 1 week at 2-5° C.): 1578 | Hardness (Red Delicious apples [1]; 2 week at 2-5° C.): 1072 | Hardness (Bartlett pears; 0 hour): 2215 g | Hardness (Bartlett pears; 1 week): 315 g | Hardness (Bartlett pears; 2 weeks): 79 g | Texture (Bramley apples; 28 hr at 4° C.): Firm | Texture (Bramley apples; 52 hr at 4° C.): Firm | Appearance (visual inspection) (Bramley apples; 191 hr at 4° C.): brown | Texture (Bramley apples; 191 hr at 4° C.): soft | Color (Red Delicious apples [2]; 0 hour): 10 | Flavor (Red Delicious apples [2]; 0 hour): 5 | Moistness (Red Delicious apples [2]; 0 hour): 10 | Texture (Red Delicious apples [2]; 0 hour): 10 | Color (Red Delicious apples [2]; 1 week at 2-5° C.): 9.6 | Flavor (Red Delicious apples [2]; 1 week at 2-5° C.): 7 | Moistness (Red Delicious apples [2]; 1 week at 2-5° C.): 10 | Texture (Red Delicious apples [2]; 1 week at 2-5° C.): 7.8 | color/appearance score (Red Delicious apples [2]; 1 week): 6 | Color (Red Delicious apples [2]; 2 week at 2-5° C.): 8.4 | Flavor (Red Delicious apples [2]; 2 week at 2-5° C.): 7 | Moistness (Red Delicious apples [2]; 2 week at 2-5° C.): 9 | Texture (Red Delicious apples [2]; 2 week at 2-5° C.): 7 | Color (Red Delicious apples [2]; 1 day at 2-5° C.): 10 | Flavor (Red Delicious apples [2]; 1 day at 2-5° C.): 8 | Moistness (Red Delicious apples [2]; 1 day at 2-5° C.): 10 | Texture (Red Delicious apples [2]; 1 day at 2-5° C.): 9.8 | color/appearance score (Red Delicious apples [2]; 24 hours (app)): 9 | color/appearance score (Red Delicious apples [2]; 3 days): 9 | color/appearance score (Granny Smith apples; 1 week): 6 | color/appearance score (Granny Smith apples; 1 day): 10 | color/appearance score (Granny Smith apples; 3 days): 10
